In patent US20230270870A1, “DOSAGE OF AN ANTIBODY-DRUG CONJUGATE” (DAIICHI SANKYO COMPANY, LIMITED, priority 2019, published 2023):
Where two headings read alike, the source gives them in different places.

Key:
[1] = tested on: NSCLC; settings: phase 2, subjects who received standard of care; cited from earlier work
[2] = tested on: NSCLC; settings: NSCLC progressed during or after platinum-based doublet chemotherapy, N=290; cited from earlier work
[3] = biological target: T1, topoisomerase I (Homo sapiens, UniProt P11387); settings: cited from earlier work
T1 sequence (P11387 1-765): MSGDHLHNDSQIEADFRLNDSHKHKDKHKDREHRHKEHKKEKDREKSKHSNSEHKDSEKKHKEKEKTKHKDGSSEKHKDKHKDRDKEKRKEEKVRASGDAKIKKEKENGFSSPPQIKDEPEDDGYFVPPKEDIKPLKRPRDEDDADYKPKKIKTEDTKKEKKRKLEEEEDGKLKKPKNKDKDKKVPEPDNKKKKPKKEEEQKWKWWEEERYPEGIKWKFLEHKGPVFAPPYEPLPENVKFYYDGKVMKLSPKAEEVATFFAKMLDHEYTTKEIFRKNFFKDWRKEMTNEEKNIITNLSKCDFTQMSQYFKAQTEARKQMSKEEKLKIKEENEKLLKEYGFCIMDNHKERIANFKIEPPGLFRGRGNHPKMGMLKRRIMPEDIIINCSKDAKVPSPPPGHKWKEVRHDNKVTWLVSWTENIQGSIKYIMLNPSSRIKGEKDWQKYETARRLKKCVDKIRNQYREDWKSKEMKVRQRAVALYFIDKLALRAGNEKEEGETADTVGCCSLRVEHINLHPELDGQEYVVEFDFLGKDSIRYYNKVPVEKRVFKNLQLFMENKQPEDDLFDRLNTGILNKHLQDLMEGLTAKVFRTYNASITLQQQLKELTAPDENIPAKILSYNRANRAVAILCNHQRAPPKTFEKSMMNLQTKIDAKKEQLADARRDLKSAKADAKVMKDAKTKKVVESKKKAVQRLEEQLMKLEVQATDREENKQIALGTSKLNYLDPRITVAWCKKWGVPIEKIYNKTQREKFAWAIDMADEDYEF

[4] = Phase 1 clinical study: pharmacokinetics; assay type: in vivo; settings: human, plasma, intravenous
Protocol: Preliminary single- and multiple-dose PK were evaluated using noncompartmental analysis in 61 subjects who received DS-1062a (0.27 mg/kg to 10 mg/kg).

## Sactizumab govitecan
[1]
  ORR: 19%

## CC(=O)O[C@@]12CO[C@@H]1C[C@H](O)[C@@]1(C)C(=O)[C@H](O)C3=C(C)[C@@H](OC(=O)[C@H](O)[C@@H](NC(=O)OC(C)(C)C)c4ccccc4)C[C@@](O)([C@@H](OC(=O)c4ccccc4)[C@H]21)C3(C)C [Docetaxel monotherapy, Docetaxel]
[2]
  DCR: 54.0% (158/290) (not provided)
  ORR: 12.0% (36/290) (9.0% to 17.0%)

## CC[C@@]1(O)C(=O)OCc2c1cc1n(c2=O)Cc2c-1nc1cc(F)c(C)c3c1c2[C@@H](NC(=O)CO)CC3 [Compound 1, HO—CH2—C(═O)—(NH—DX)]
[3]
  topoisomerase I inhibitory effect: topoisomerase I inhibitory effect
[4]
  exposure of released drug compared with DS-1062a: lower than that of DS-1062a
